The values below come from patent US8993527B2, “Methods, compositions, and formulations for preventing or reducing adverse effects in a patient” (Pericor Therapeutics, Inc., priority 2005, dated 2015).

For orientation: inhibition means the change of the read-out against control, counted positive when it falls. A higher inhibition goes with strong suppression. By IC50 is commonly meant the concentration that inhibits the measured activity by half. As usually defined, the melting point is the temperature of the solid-liquid transition.

For series [1], the system named is coronary endothelial cells. In words: Inhibition of adenosine utilization in cell culture. The series is classed as cell-based. The note with it: Endothelial cell, 1 μM [3H] adenosine, 15 minutes. The method, then: In this assay, endothelial cells were incubated with 5 μM or 50 μM of the test compound together with 1 μM [^3H] adenosine for 15 minutes. Inhibition of adenosine utilization was determined by measuring the concentration of extracellular adenosine by scintillation counting following separation by thin layer chromatography (TLC).

Series [2] deals with platelet aggregation in human whole blood. Description: Inhibition of platelet aggregation in human whole blood. The format is cell-based. The note with it: 10 minutes at 37° C., 10 µM adenosine added, ADP (6-25 μM). The method, then:
Whole blood was drawn from healthy donors and collected in 0.1 vol. of sodium citrate to prevent coagulation. Platelet aggregation was measured by the impedance technique using a Whole Blood Aggregometer. The test compounds were incubated in whole blood for 10 minutes at 37° C. and 10 µM adenosine was added 5 minutes before eliciting aggregation. Aggregation was induced by addition of ADP (6-25 μM) at the minimum concentration inducing full aggregation in untreated controls.

The subject of series [3] is patients undergoing coronary artery bypass surgery. In words: Aspirin within 48 hours of revascularization: prospective study of CABG patients. The series is classed as in vivo. From the text:
A prospective, longitudinal study enrolled 5,436 patients. Eligible patients included those with medically-refractory coronary artery disease and scheduled for coronary artery bypass surgery at 70 medical institutions among 17 countries in North and South America, Europe, the Middle East and Asia. At each institution, 100 patients were to be prospectively enrolled according to a systematic sampling scheme that allowed a random sampling of patients at each institution among all patients undergoing surgery at that institution.
Of the 5,436 patients enrolled, 5,065 patients completed the study and were included in the final analysis. Of the 371 patients excluded, 32 were excluded due to patient withdrawal, 2 due to death prior to surgery, 97 due to cancellation or rescheduling of surgery, 132 patients due to change in procedure, 11 due to inadvertent enrollment in another study, 86 due to incomplete data and 11 due to incomplete blood sampling, shipping or storage.
Aspirin was administered in doses of 160 mg to 650 mg to 3,001 patients within 48 hours of revascularization. All potential side-effects associated with aspirin use were recorded daily by blinded investigators. Independent investigators coded all medications received-including pro- and anti-thrombotic and pro- and anti-coagulant medications, and blood products—by day throughout hospitalization, as well as at admission and at discharge, or until death.
For each enrolled patient, approximately 7,500 fields of data were collected throughout the patient's index hospitalization, from admission until discharge, by independent investigators; treated physicians were blinded to all research data. Data included demographic, historical, clinical, laboratory, eloectrocardiographic, specialized testing, resource utilization, and adverse outcomes. Following last patient enrollment, all data fields for each patient were queried centrally for completeness and accuracy, with all changes documented prior to database closure.
All outcomes were prespecified, defined by protocol, and discerned by investigators blinded to treatment group. Fatal and non-fatal outcomes were classified as cardiac (myocardial infarction, congestive heart failure and cardiac death), cerebral (stroke, encephalopathy and cerebral death), renal (dysfunction, failure and renal death), gastrointestinal (ischemia, infarction and GI death), or other (such as infectious, pulmonary). The diagnosis of myocardial infarction required either: the development of new Q waves (as defined by Minnesota Code 1-1-1I or 1I-2-7); or new persistent S T-segment or T-wave changes (Minnesota Code 4-1, 4-2, 5-1 or 5-2) associated with an elevation of CK-MB isoenzyme values; or autopsy evidence of acute myocardial infarction. The diagnosis of heart failure required either: the use of a ventricular assist device; or the use of continuous inotropic support for at least 24 hours; or autopsy evidence of heart failure. Cerebral outcomes were classified as: clinically diagnosed stroke or encephalopathy; or CT, MRI or autopsy evidence of a focal or global defect. Renal dysfunction was defined as: a serum creatinine ≧177 μmol/L accompanied by a ≧62 μmol/L rise over baseline; and renal failure was defined as dysfunction requiring dialysis, or autopsy evidence of renal failure. Gastrointestinal ischemia was defined as abdominal pain diagnosed as intestinal ischemia, or detected at exploration; infarction required bowel resection, or autopsy evidence of intestinal infarction.
The risk of death for aspirin taking versus control populations were compared using the Chi-Square test. Individual ischemic outcomes involving the heart, brain, kidney and gastrointestinal tract, and combined ischemic outcomes were compared using Fisher's Exact Test or the Chi-Square test as appropriate. Odds ratios and the 95% confidence intervals are presented with associated P values. […]

For series [4], the system named is longitudinal muscle from the guinea pig ileum. Description: Inhibition of stimulated contraction in isolated ileum. As to conditions: electrically stimulated guinea pig ileum muscle. From the text: These are detailed in Table II.
In series [5] the test system is ischemic rat hearts. Description: Rat heart ischemia model: tissue adenosine levels. The note with it: intraperitoneal; hearts excised after 60 minutes, incubated 60 minutes at 37° C. The series is classed as in vivo. On the procedure: Male rats were injected intraperitonealy with either the AICA riboside analog, AICA riboside or saline, as a control. After 60 minutes, the hearts were excised and incubated at 37° C. for a further 60 minutes. Tissue extracts were prepared and analyzed for adenosine by high performance liquid chromatography (HPLC).

Series [6] addresses T1, NBTI-specific adenosine transport site (UniProt O54698).
T1 sequence (O54698 1-457): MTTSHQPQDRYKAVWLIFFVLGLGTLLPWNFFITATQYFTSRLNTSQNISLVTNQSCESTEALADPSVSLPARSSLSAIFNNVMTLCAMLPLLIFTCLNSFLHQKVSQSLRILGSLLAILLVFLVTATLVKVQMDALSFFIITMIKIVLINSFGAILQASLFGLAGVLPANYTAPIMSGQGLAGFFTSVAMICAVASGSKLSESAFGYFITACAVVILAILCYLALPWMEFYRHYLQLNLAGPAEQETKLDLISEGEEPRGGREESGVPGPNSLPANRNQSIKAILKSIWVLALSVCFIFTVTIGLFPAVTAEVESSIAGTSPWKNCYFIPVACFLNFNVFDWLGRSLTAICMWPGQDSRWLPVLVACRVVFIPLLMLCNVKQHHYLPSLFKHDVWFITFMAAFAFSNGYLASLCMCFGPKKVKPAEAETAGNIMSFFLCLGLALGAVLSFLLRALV
Description: [3H]-NBTI binding assay. The note with it: read-out: ED50 (50% displacement of bound [3H]-NBTI); 0.5 mg neuronal membrane protein, 0.5 nM [3H]-NBTI, 30 minutes. On the procedure: Increasing concentrations of the test compounds were incubated for 30 minutes with 0.5 mg neuronal membrane protein together with 0.5 nM [^3 H]-NBTI in a Tris buffer (pH 7.4) at room temperature. The assays were quenched and membranes collected by rapid filtration. Filters were then solubilized and radioactivity determined by scintillation counting.

The target in series [7] is T2, purified pig heart adenosine kinase (Sus scrofa, UniProt A0A5G2R0F5).
T2 construct: 0.1 μg of purified pig heart adenosine kinase; from tissue; host or cells: pig heart
T2 sequence (A0A5G2R0F5 1-362): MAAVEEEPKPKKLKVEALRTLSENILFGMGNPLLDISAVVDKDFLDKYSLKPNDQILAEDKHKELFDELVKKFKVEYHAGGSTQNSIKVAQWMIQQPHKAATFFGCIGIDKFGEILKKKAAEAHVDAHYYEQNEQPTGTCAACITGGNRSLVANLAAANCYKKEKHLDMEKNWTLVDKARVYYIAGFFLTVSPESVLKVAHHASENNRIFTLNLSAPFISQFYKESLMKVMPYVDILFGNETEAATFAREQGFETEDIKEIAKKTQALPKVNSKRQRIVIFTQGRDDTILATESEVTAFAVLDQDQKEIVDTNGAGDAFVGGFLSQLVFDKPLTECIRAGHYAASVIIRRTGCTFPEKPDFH
Description: Adenosine kinase activity. The series is classed as biochemical. The note with it: 0.5 μM [U14C] adenosine, 1 mM ATP, 20 minutes at 37° C. On the procedure: Inhibition of enzyme activity was determined using a 0.1 ml assay mixture containing 50 mM Tris-maleate, pH 7.0, 0.1% (w/v) BSA, 1 mM ATP, 1 mM MgCl2, 0.5 μM [U^14 C] adenosine (500 mCi/mmol) and 0.1 μg of purified pig heart adenosine kinase. Different concentrations of test compound were incubated in the assay mixture for 20 minutes at 37° C. From each reaction mixture, 20 μl portions were removed and spotted on 2^2 pieces of Whatman DE81 filter paper. The papers were then washed to remove [^14 C] adenosine in 1 mM ammonium formate followed by deionized water and finally 95% ethanol. The papers were dried, and [^14C] AMP measured by scintillation counting. Activities were determined from the amount of [^14C] AMP formed.

Molecule `Nc1c(C(=O)NCc2ccc([N+](=O)[O-])cc2)ncn1C1OC(CCl)C(O)C1O` (stereo not shown) [51 (1-466)] showed a melting point of 174 to 176 °C. In addition, in series [1], at 5 µM the inhibition was 27 ± 2% and the inhibition at 50 µM was 65 ± 2%. Besides, half-maximal inhibition in series [2] (Homo sapiens, Platelet, 10 min) (IC50) was put at 193 µM.

As for `CC(=O)Oc1ccccc1C(=O)O` [Aspirin], the “Odds Ratio for mortality (multivariate)” value in series [3] (Aspirin use (admission)) is given as 1.46; in series [3] (Aspirin use (prior to surgery)), 0.77; in series [3] (Aspirin use following revascularization) it was 0.27; in series [3] (Discontinuation of aspirin use) it was 1.04. In addition, in series [3] (aspirin group, 11.32±9.44 without), the Length of hospitalization is 9.57±7.14. Moreover, the “patients who died within 12 hours of surgery” value in series [3] (aspirin group, 25 patients in the control group) is recorded as “none”. In addition, in series [3] (aspirin group, 42 patients in the control group), the “patients who died within 48 hours of surgery” value is listed as “one”. For the same molecule, the “risk of dying during hospitalization” value in series [3] (aspirin within 48 hours of revascularization, 5.9% without) worked out at 1.4%. Moreover, the “non-fatal ischemic complications (heart, brain, kidney or gastrointestinal tract)” value in series [3] (aspirin within 48 hours of revascularization, 24.5% without) turned out to be 13.6%. Besides, the reduction in mortality in series [3] (first use of aspirin 48 hours after surgery, not significant (P=0.534)) was determined as 15%.

In the case of `CC(=O)OC[C@H]1O[C@@H](c2nc(C(N)=O)c(N)[nH]2)[C@H](OC(C)=O)[C@@H]1OC(C)=O` [Compound No. 2 (1-111), 5-Amino-(2,3,5-tri-O-acetyl-beta-D-ribofuranosyl)imidazole-4-carboxamide], the melting point is 128 to 129 °C.

In the case of `Nc1c(C(=O)NC2CC2)ncn1[C@@H]1O[C@H](CO)[C@@H](O)[C@H]1O` [Compound No. 12 (1-232), 5-Amino-1-beta-D-ribofuranosylimidazole-4-N-(cyclopropyl)carboxamide], in series [4], the half-inhibitory concentration (IC50) amounted to 400 µM. For the same molecule, in series [5], the “Tissue Adenosine Levels (% Increase vs. Saline)” value came to 29%.

For `Nc1c(C(=O)NCc2ccc([N+](=O)[O-])cc2)ncn1C1OC(CO)C(O)C1O` [Compound No. 23 (1-343), 5-Amino-1-β-D-ribofuranosyl-imidazole-4-N-[(4-nitrophenyl)methyl]carboxamide], in series [4] (Cavia porcellus), the IC50 amounted to 3 µM. In series [1], this molecule displayed an inhibition at 5 µM of 27 ± 4% and an inhibition at 50 µM of 63 ± 2%. Besides, the EC50 in series [6] worked out at 3 µM. The molecule also had a half-maximal inhibitory concentration (IC50) in series [2] (Homo sapiens, Platelet, 10 min) of 38 µM.

For `Nc1c(C(=O)NCc2ccc(Cl)cc2)ncn1C1OC(CO)C(O)C1O` [Compound No. 29 (1-349), 5-amino-1-β-D-ribofuranosylimidazole-4-N-[(4-Chlorophenyl)methyl]carboxamide], the IC50 was determined as 60 µM in series [4] (Cavia porcellus) and 90 µM in series [2] (Homo sapiens, Platelet, 10 min). In addition, the inhibition at 5 µM in series [1] was found to be 41 ± 11%. This molecule returned an inhibition at 50 µM in series [1] of 67 ± 8%. The EC50 in series [6] amounted to 100 µM.

On to `Nc1c(C(=O)NN2CCCCC2)ncn1[C@@H]1O[C@H](CO)[C@@H](O)[C@H]1O` [Compound No. 36 (1-207), 5-amino-4-(1-piperidinocarbamoyl)-1-β-D-ribofuranosylimidazole], for which the “Tissue Adenosine Levels (% Increase vs. Saline)” value in series [5] was 34%.

For the molecule `NC(=O)c1nc(Sc2ccccc2)n([C@@H]2O[C@H](CO)[C@@H](O)[C@H]2O)c1N` [Compound No. 43 (1-432), 5-Amino-2-thiophenyl-1-β-D-ribofuranosylimidazole-4-carboxamide], the figures for the IC50 in series [4] and in series [2] were 200 µM and 620 µM, respectively. Further, the EC50 in series [6] is 71 µM.

Take `Nc1c(C(=O)Nc2ccc(Br)cc2)ncn1C1OC(CO)C(O)C1O` [Compound No. 55 (1-484), 5-Amino-1-β-D-ribofuranosylimidazole-4-N-(4-bromophenyl)carboxamide]: the melting point was 214 to 216 °C (dec.). The EC50 in series [6] worked out at 60 µM.

The molecule `Nc1c(C(=O)Nc2ccc(I)cc2)ncn1C1OC(CO)C(O)C1O` [Compound No. 57 (1-488), 5-Amino-1-β-D-ribofuranosyl-imidazole-4-N-(4-iodophenyl) carboxamide] returned a melting point of 227 to 229 °C. The EC50 in series [6] turned out to be 80 µM.

As for `Nc1c(C(=O)Nc2ccccc2Cl)ncn1C1OC(CO)C(O)C1O` [Compound No. 64 (1-519), 5-Amino-1-β-D-ribofuranosylimidazole-4-N-(2-chlorophenyl)carboxamide], the melting point lay in the range of 131 to 135 °C. In addition, the EC50 in series [6] stood at 48 µM.

Turning to `C[C@H]1O[C@@H](n2c(S)nc(C(N)=O)c2N)[C@H](O)[C@@H]1O` [Compound No. 67 (1-535), 5-Amino-2-thio-1-βD-(5 deoxyribofuranosyl)imidazole-4-carboxamide], 23 µM corresponded to half-maximal inhibition in series [7] (IC50).

On to `NC[C@H]1O[C@@H](n2c(S)nc(C(N)=O)c2N)[C@H](O)[C@@H]1O` [Compound No. 70 (1-551), 5-Amino-2-thio-1-(5-amino-5-deoxy-β-D-ribofuranosyl)imidazole-4-carboxamide], for which the IC50 in series [7] was 17 µM.

Take `CC(=O)CC(c1ccccc1)c1c(O)c2ccccc2oc1=O` (stereo not shown) [Warfarin/coumadin]: in series [3] (Warfarin/coumadin over the week prior to revascularization), the “Odds Ratio for mortality (multivariate)” value was 2.00.
